Reference: patent US12605404B2, “Synthetic cellular membrane chemical ionophore delivery system comprising hexa-aqua ligand compositions” (priority 2021, dated 2026)

Tested on: Staphylococcus aureus (MRSA)
Assay: Broth Microdilution (CLSI-BMD), non-biofilm, 10 MRSA isolates
Type: cell-based
Text: A non-biofilm antimicrobial assay using the broth microdilution-based sensitivity method was completed at the University of Debrecen, Hungary. […] A percentage solution calculation established that twice the amount of vancomycin was needed to create the same 50% turbidity reduction in MRSA when tested in comparison to ZC-1.

## CN[C@H](CC(C)C)C(=O)N[C@H]1C(=O)N[C@@H](CC(N)=O)C(=O)N[C@H]2C(=O)N[C@H]3C(=O)N[C@H](C(=O)N[C@H](C(=O)O)c4cc(O)cc(O)c4-c4cc3ccc4O)[C@H](O)c3ccc(c(Cl)c3)Oc3cc2cc(c3O[C@@H]2O[C@H](CO)[C@@H](O)[C@H](O)[C@H]2O[C@H]2C[C@](C)(N)[C@H](O)[C@H](C)O2)Oc2ccc(cc2Cl)[C@H]1O [Vancomycin]
control, 10 MRSA isolates
  MIC values, range: 4 to 16 µg/mL
Percentage solution calculation
  amount needed for the same 50% turbidity reduction in MRSA, in comparison to ZC-1: twice
